Where two headings read alike, the source gives them in different places.
Tests used:
LMD231-Luc cells = test: Breast cancer lung metastasis model (tail vein, bioluminescence); format: in vivo, nude mice; conditions: for Growth of lung metastasis (bioluminescence): intraperitoneal, end of 7 weeks
Description: FIG. 19A About 200,000 LMD-231 cells stably expressing luciferase was injected into the tail vein of 6 week old nude mice. Lung metastasis was formed in 2 weeks. Mice were treated with 100 mg/kg BFC1108 4 times a week by intraperitoneal route. Bioluminescent imaging was performed once a week and quantified.
About 200,000 LMD-231 cells stably expressing luciferase was injected into the tail vein of 6 week old nude mice. Lung metastasis was detectable in 2 weeks after injection of tumor cells. Mice were treated with 50 mg/kg of BFC1103 6 times a week by intraperitoneal injections. Bioluminescent imaging was performed once a week and quantified. * P<0.05.
For the lung metastatic study, 5 week old Nude mice were procured from Jackson Labs. About 200,000 LMD231-Luc2 cells in PBS were injected into the tail vein. Lung metastasis could be detected in 2 weeks' time. Treatments with BFC1108 at 100 mg/kg, 4 times a week, were started a day after the cells were injected. Body weight was measured twice a week. Bioluminescence was measured once a week while the mice are under anesthesia. At the end of the study mice were euthanized and lung tissues were dissected and fixed for immunohistochemical analysis.
For experimental lung metastases model, LMD-231 cells derived from MDA-MB-231 that repeatedly colonized lungs were used23. Lenti viral particles with luciferase expression vector (GenTarget, San Diego, Calif.) was used to transduce LMD-231 cells to obtain high luciferase expressing clone after clonal expansion. The stable expression of luciferase was monitored for 7 weeks in vitro before using in animal experiments.
All animal experiments were performed as per approved protocols from the IACUC at Oregon State University. 5 week old nude mice were procured from Jackson Labs (Bar Harbor, Me.). Treatments were started a day after the LMD-Luc cells (200,000 cells suspended in DPBS) were injected into the lateral tail vein. Body weight was measured twice a week. Bioluminescence was measured twice a week using IVIS Lumina II (PerkinElmer, Waltham, Mass.) as per manufacturer instructions, while the mice were under anesthesia.

[1] = tested on: H460 parental and derived paclitaxel resistant cells; test: Viability of H460 parental and paclitaxel resistant cells; format: cell-based, human; conditions: for Viability of H460 resistant vs parental line: 72 hours
Description: Percentage viability relative to vehicle treatment was calculated. Representative of three independent assays conducted in triplicate.
FIG. […] Percentage viability relative to vehicle treatment. Representative of three independent assays conducted in triplicate.
Representative of three independent assays conducted in triplicate.
Cell lines were obtained from ATCC and maintained according to manufacturer's instructions. The human lung cancer cell line NCI-H460, H69AR (ATCC) were cultured in RPMI medium (Corning) containing 10% FBS. The human breast cancer cell line MDA-MB-231 was cultured in DMEM medium (Corning) containing 10% FBS. All cell lines were maintained at 5% CO2 and 37° C. Paclitaxel resistant H460 cells were derived by treating cells once a week over 6 weeks, initially with 1 nM paclitaxel and then increasing dose incrementally up to 100 nM. Once resistance was confirmed, paclitaxel was withdrawn from the cells. Resistance to paclitaxel was maintained without presence of paclitaxel measured up to 2 months. A parental line was maintained for a similar number of passages as the resistant line. All experiments were performed using cells that had not been treated with paclitaxel in at least three passages.
Cells of interest were plated at 2000 cells per well in 96-well black tissue culture plate and allowed to adhere to the plate overnight. Viability assays were performed using 10% serum medium unless otherwise stated. Drugs were diluted in supplemented tissue culture medium and added at increasing concentrations, with DMSO as a vehicle control. […] Luminescence was measured using Tropix TR717 Microplate luminometer. Percentage of viable cells is relative to vehicle (100%). As a complementary viability assay, eBioscience Fixable Viability Dye eFluor 660(65-0864) was used to stain dead cells and analyzed using flow cytometry.

[2] = tested on: WT MEF, Bax−/− MEF, Bak−/− MEF and Bax−/− Bak−/− MEF cells; test: Viability of MEF cells with or without Bax or Bak; format: cell-based, mouse; conditions: 24 h, 10% serum; for Bax/Bak dependence of effect on MEF viability: 1 μM, WT, Bak−/− and DKO MEF; for viability at 1 µM: Mus musculus, MEF, normalized to vehicle
Description: WT MEF, BAX^−/− MEF, BAK^−/− MEF and Bax^−/− Bak^−/− MEF cells were treated with MTX at 1 μM concentration for 24 h in 10% serum conditions. Viability was assessed using the Glo assay. MTX treatments were normalized to 100% of Vehicle.
FIG. 17C WT MEF, Bax−/− MEF, Bak−/− MEF and Bax−/− Bak−/− MEF cells were treated with 1 μM BFC1108 for 24 h in 10% FBS medium and viability was assessed using cell titer glo assay.
WT MEF, Bax^−/− MEF, Bak^−/− MEF and Bax^−/− Bak^−/− MEF cells were treated with 1 μM BFC1103 for 24 h in 10% FBS medium and viability was assessed using cell titer glo assay.

[3] = tested on: LNCaP, HepG2, H460, A375, U251, ZR-75-1 cells; test: Viability of a range of cancer cell types; format: cell-based, human
Source text: Cell titer glo assay (Promega, CA) was used for assessing viability as per manufacturer instructions. DAPI stain was used to assess apoptosis.

MDA-MB-231/Bcl-2 cells = test: Orthotopic breast cancer xenograft in mammary fat pad; format: in vivo, NOD SCID mice; conditions: 100 mg/kg twice a week; for Immunohistochemistry of tumor sections (TUNEL, Bcl-2 BH3, activated Bax, cleaved caspase-3): end of the study; for Tumor growth: intraperitoneal
Description: […] were implanted in the mammary fat pad of NOD SCID mice (N=10). Once palpable tumors were formed MTX was treated at 100 mg/kg twice a week by intraperitoneal injections. Tumor measurements were made with digital calipers twice a week.
106 MDA-MB-231/Bcl-2 cells were implanted in the mammary fat pad of NOD. SCID mice (n=8 per group). Once palpable tumors formed, mice were treated with 100 mg/kg BFC1108 twice a week by i.p. route. Tumor measurements were made with digital calipers twice a week.
All animal experiments were performed as per approved protocols from the IACUC at Oregon State University. 5 week old NOD.SCID mice were procured from Jackson Labs. Treatments were started once palpable tumors were detected. MTX was treated twice a week at 100 mg/kg dose. Body weight was measured twice a week. Tumor burden was measured twice a week using digital calipers.
All animal experiments were performed as per approved protocols from the IACUC at Oregon State University. For the mammary fat pad xenograft study, 5 week old NOD.SCID mice were procured form Jackson labs. About 10^6 cells were injected into both the lower flanks of mammary fat pad in PBS. Palpable tumors were detected in 4 weeks after which treatment with BFC1108 at 100 mg/kg twice a week continued till end of the study. Tumor mass was measured using digital calipers twice a week along with body weight. At the end of the study mice were euthanized and tumors were collected for immunohistochemical analysis.

[4] = tested on: MDA-MB-231 cells with or without the Bcl-2 expression vector; test: Apoptosis in MDA-MB-231 cells (DAPI, annexin V staining); format: cell-based, human; conditions: 10% FBS

| SMILES | H&E analysis of lung tissue (LMD231-Luc cells; 50 mg/kg, 6 days per week) | Ki67 staining of lung tissue (LMD231-Luc cells; 50 mg/kg, 6 days per week) | Growth of lung metastasis (bioluminescence) (LMD231-Luc cells; 50 mg/kg, 6 days per week) | Viability of H460 resistant vs parental line [1] | Bax/Bak dependence of effect on MEF viability [2] | Viability of various cancer cell lines ([3]; 24 h, 10% FBS) | Ki-67 staining of lung tissue (LMD231-Luc cells; 100 mg/kg, 4 times a week) | Growth of lung metastasis (bioluminescence) (LMD231-Luc cells; 100 mg/kg, 4 times a week) | Cell viability, combination with paclitaxel ([1]; paclitaxel 1 nM and BFC1108 20 μM, 24 hours) | Immunohistochemistry of tumor sections (TUNEL, Bcl-2 BH3, activated Bax, cleaved caspase-3) (MDA-MB-231/Bcl-2 cells) | Tumor growth (MDA-MB-231/Bcl-2 cells) | Apoptosis by annexin V staining ([4]; 10 μM, 48 h) | Viability of a range of cancer cell types ([3]; 48 h, 10% serum) | viability at 1 µM ([2]; read-out: Viability, Bak−/− MEF) | viability at 1 µM ([2]; read-out: Viability, Bax−/− MEF) | viability at 1 µM ([2]; read-out: Viable cells, wild type MEF) | Apoptosis by nuclear condensation and fragmentation (DAPI) ([4]; 10 μM) | Apoptosis by annexin V staining ([4]; indicated concentrations) |
| --- | --- | --- | --- | --- | --- | --- | --- | --- | --- | --- | --- | --- | --- | --- | --- | --- | --- | --- |
| CCCCc1ccc(NC(=O)CN(Cc2ccccc2)S(C)(=O)=O)cc1 [BFC1103, N-2-benzyl-N-1-(4-butylphenyl)-N-2-(methylsulfo-nyl) glycinamide] | potent suppression of tumor growth | lung tissues from vehicle treated mice had a significantly higher number of proliferating cells, as measured by Ki67 staining, than the BFC1103 treated mice | significantly suppressed the growth of lung metastasis | reduced viability of resistant line preferentially | wild type MEF cells, MEF cells without Bax or Bak expression had significant reduction in their viability compared to the double knockout (DKO) MEFs | reduced the viability of a host of cancer cell types including breast cancer ZR-75-1, non-small cell lung cancer H460, melanoma A375, liver cancer HepG2, and prostate cancer LNCaP cells |  |  |  |  |  |  |  |  |  |  |  |  |
| CCOc1ccccc1NC(=O)c1cc(Cl)ccc1NC(=O)c1ccc(OC)cc1 [BFC1108, 5-chloro-N-(2-ethoxyphenyl)-2-[(4-methoxybenzoyl)amino]-benzamide] |  |  |  | reduced viability of resistant line preferentially | no effect on viability in DKO MEFs, whereas Bax^−/− MEF and Bak^−/− MEF have diminished viability |  | only vehicle treated animals showed Ki-67 positivity | suppressed the growth of lung metastasis | synergistic reduction in cell viability | functional conversion of Bcl-2 leading to activation of intrinsic mitochondrial death pathway was validated in vivo | significantly reduced the growth of a xenograft tumor | increased apoptosis in MDA-MB-231/Bcl-2 cells was observed | reduce viability in a variety of cancer cell types including LNCaP, HepG2, H460, A375 and U251 |  |  |  |  |  |
| CN(Cc1cnc2nc(N)nc(N)c2n1)c1ccc(C(=O)N[C@@H](CCC(=O)O)C(=O)O)cc1 [MTX, (2S)-2-[[4-[(2,4 diaminopteridin-6-yl)methylmethylamino]benzoyl]amino] pentanedioc acid] |  |  |  |  | viability of Bax^−/− Bak^−/− MEF (DKO) cells was not effected |  |  |  |  | caused a change in conformation of Bcl-2 and induced apoptosis in Bcl-2 over-expressing tumors | significant inhibition of tumor growth |  |  | ~40% | ~40% | ~30% | higher apoptosis rate in the presence of the Bcl-2 protein | increased apoptosis in the presence of the Bcl-2 protein |
